In assay [1] the target is T1, GlcNAc-phosphotransferase (UDP-GlcNAc: lysosomal enzyme GlcNAc alpha 1-phosphotransferase) (Homo sapiens, UniProt Q3T906).
T1 construct: gene GNPTAB; native enzyme in 600 g supernatant of human normal liver homogenate (autopsy tissue), not purified; alpha/beta precursor is cleaved into alpha and beta chains (alpha2beta2gamma2); with N-acetylglucosamine-1-phosphotransferase subunit gamma
Description: radiometric transferase assay, QAE-Sephadex. Conditions: normal liver homogenate, range of three preparations, Mn2+, Mg2+, ATP, pH 7.4, 37 °C. The class given is biochemical.

The target of assay [2] is T2, phosphodiester glycosidase (phosphodiester alpha-N-acetylglucosaminidase) (Homo sapiens, UniProt Q9UK23).
T2 construct: gene NAGPA; native enzyme in 600 g supernatant of human normal liver and hepatoma homogenates, not purified
T2 sequence (Q9UK23 50-515): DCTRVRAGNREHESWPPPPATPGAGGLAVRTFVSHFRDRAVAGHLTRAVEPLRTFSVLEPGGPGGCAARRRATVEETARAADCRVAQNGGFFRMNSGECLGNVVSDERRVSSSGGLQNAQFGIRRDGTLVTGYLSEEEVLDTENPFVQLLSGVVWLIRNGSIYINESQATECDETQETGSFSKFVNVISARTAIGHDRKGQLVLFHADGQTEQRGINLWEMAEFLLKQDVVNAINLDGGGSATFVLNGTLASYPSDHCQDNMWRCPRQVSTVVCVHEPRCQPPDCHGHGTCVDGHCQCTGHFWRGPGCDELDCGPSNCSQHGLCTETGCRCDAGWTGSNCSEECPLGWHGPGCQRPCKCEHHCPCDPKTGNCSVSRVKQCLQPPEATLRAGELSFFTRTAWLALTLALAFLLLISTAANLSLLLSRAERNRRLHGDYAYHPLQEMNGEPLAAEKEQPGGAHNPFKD
Description: radiometric release of [3H]GlcNAc, QAE-Sephadex. The class given is biochemical. Conditions: liver homogenate; Triton X-100, N-acetylmannosamine, EDTA, pH 7.4, 37 °C; labelled compound.

Structures are written as SMILES.

The values that follow come from PMC1972543, “Elevated carbohydrate phosphotransferase activity in human hepatoma and phosphorylation of cathepsin D” (British Journal of Cancer, 1991).

For orientation: Km means the substrate concentration at which the rate is half of its maximum.

T1 sequence (Q3T906 1-928): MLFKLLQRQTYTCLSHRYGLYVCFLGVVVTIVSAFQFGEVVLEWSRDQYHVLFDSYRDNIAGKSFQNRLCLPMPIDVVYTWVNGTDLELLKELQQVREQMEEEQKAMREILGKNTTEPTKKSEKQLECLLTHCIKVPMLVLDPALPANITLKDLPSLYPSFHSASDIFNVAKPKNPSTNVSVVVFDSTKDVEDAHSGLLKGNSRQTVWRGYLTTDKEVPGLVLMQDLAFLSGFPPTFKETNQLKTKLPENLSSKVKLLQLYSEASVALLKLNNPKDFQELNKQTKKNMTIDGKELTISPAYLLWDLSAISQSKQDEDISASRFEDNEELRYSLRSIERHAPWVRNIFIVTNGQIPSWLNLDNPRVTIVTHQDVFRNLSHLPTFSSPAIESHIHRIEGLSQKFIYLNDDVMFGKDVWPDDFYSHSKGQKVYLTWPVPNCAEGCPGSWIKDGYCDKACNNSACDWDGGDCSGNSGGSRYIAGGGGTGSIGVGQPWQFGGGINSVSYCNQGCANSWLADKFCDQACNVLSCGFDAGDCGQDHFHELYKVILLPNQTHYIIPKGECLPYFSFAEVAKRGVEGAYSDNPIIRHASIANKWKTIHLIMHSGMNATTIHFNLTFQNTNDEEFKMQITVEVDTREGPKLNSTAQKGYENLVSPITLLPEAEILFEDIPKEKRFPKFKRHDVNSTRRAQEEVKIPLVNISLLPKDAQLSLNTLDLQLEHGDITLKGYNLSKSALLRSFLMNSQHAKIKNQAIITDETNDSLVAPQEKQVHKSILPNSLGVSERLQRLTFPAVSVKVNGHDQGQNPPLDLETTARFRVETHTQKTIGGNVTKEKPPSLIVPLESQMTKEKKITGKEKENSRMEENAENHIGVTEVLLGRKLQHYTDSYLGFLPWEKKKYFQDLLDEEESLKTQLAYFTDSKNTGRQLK
T1 sequence (Q3T906 929-1256): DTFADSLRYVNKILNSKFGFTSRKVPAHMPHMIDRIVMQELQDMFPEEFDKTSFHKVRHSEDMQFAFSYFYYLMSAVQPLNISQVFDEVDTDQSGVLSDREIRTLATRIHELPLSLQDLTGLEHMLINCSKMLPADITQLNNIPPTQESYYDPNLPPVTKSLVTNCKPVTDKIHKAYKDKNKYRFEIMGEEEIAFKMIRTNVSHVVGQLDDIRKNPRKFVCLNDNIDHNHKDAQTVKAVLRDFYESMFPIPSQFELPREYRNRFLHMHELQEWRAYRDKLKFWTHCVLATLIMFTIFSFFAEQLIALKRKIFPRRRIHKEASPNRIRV
T1 sequence (Q9UJJ9 25-305 partner): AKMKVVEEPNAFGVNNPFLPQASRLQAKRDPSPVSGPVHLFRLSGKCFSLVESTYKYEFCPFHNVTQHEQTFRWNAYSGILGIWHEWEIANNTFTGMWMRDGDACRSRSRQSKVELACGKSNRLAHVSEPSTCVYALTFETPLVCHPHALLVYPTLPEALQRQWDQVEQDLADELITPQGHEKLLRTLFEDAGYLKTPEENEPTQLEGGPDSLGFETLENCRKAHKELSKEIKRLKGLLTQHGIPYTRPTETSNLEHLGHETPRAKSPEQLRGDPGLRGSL

With `CC(=O)N[C@H]1[C@@H](OP(=O)(O)OP(=O)(O)OC[C@H]2O[C@@H](n3ccc(=O)[nH]c3=O)[C@H](O)[C@@H]2O)O[C@H](CO)[C@@H](O)[C@@H]1O` [UDP-GlcNAc], the Km in assay [1] (acceptor alpha-methylmannoside, labelled compound) was in the range of 0.027 to 0.037 mM.

On to `CO[C@H]1O[C@H](COP(=O)(O)O[C@H]2O[C@H](CO)[C@@H](O)[C@H](O)[C@H]2NC(C)=O)[C@@H](O)[C@H](O)[C@@H]1O` [[6-3H]GlcNAc-P-6-(alpha-methyl)mannoside], for which the “radiometric release of [3H]GlcNAc, QAE-Sephadex” value in assay [2] is on record as “amount of the labelled substrate used for the glycosidase assay was not sufficient to measure Km”.

In the case of `CO[C@H]1O[C@H](CO)[C@@H](O)[C@H](O)[C@@H]1O` [alpha-methylmannoside], in assay [1] (co-substrate [beta-32P]UDP-GlcNAc), the Km is 50 to 100 mM.
